Data from PubChem BioAssay (NCI).
“And” between values parts separate entries of the source, which are not always exact repeats. Equal entries are not always repeated.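 48-hour exposure; five concentrations; linearly interpolated endpoints. GI50 = concentration required for 50% inhibition of growth. TGI marks complete inhibition of growth.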

Experiments:
Test in all cases: NCI anticancer screen, dose series, 48 h
[1] = test system: HCT-15 colon
[2] = test system: SK-MEL-2 melanoma
[3] = test system: OVCAR-5 ovarian
[4] = test system: MOLT-4 leukemia
[5] = test system: NCI-H23 lung
[6] = test system: HCT-116 colon
[7] = test system: SF-295 CNS
[8] = test system: NCI-H460 lung
[9] = test system: SN12C renal
[10] = test system: T-47D breast

## Cn1cc(C2=C(c3c4n(c5ccccc35)CCCCC4)C(=O)NC2=O)c2ccccc21
[1]
  GI50: 1690 nM
  TGI: > 25 µM
[2]
  GI50: 2120 nM
  TGI: > 18.8 µM
[3]
  GI50: > 19.5 µM
  TGI: > 25 µM
[4]
  GI50: 7040 nM
  TGI: > 25 µM
[5]
  GI50: 10.6 µM
  TGI: > 25 µM
[6]
  GI50: 4210 nM
  TGI: > 25 µM
[7]
  GI50: 1310 nM
  TGI: > 14.7 µM
[8]
  GI50: 6510 nM
  TGI: > 25 µM
[9]
  GI50: 9880 nM
  TGI: > 25 µM
[10]
  GI50: 8.64 µM
  TGI: > 25 µM

## O=C(Nc1ccccc1)c1c(O)[nH]c(=S)[nH]c1=O
[1]
  GI50: 84300 nM
  TGI: 72.2 µM and > 250 µM
[2]
  GI50: 61600 nM
  TGI: 101 µM and 179 µM
[3]
  GI50: 89.6 µM
  TGI: 110 µM and > 250 µM
[4]
  GI50: 40000 nM
  TGI: 53.2 µM and 96.4 µM
[5]
  GI50: 83.6 µM
  TGI: 82.6 µM and > 250 µM
[6]
  GI50: 58600 nM
  TGI: 111 µM and > 250 µM
[7]
  TGI: 108 µM
[8]
  GI50: 29500 nM
  TGI: 101 µM and > 250 µM
[9]
  TGI: 112 µM
[10]
  TGI: 105 µM

## COc1cccc(-c2cc(-c3cccc(NS(C)(=O)=O)c3)nc(N)c2C#N)c1O
[1]
  GI50: 82.4 nM
  TGI: > 100 µM
[2]
  GI50: 132 nM
  TGI: > 100 µM
[3]
  GI50: 1.08 µM
  TGI: > 100 µM
[4]
  GI50: 349 nM
  TGI: > 100 µM
[5]
  GI50: 0.341 µM
  TGI: > 100 µM
[6]
  GI50: 78.3 nM
  TGI: > 100 µM
[7]
  GI50: 43.1 nM
  TGI: 0.752 µM
[8]
  GI50: 316 nM
  TGI: > 39.5 µM
[9]
  GI50: 505 nM
  TGI: > 100 µM
[10]
  GI50: 0.317 µM
  TGI: 58.6 µM

## Cc1cnc(NCCCN(C)C)c2c1[nH]c1ccc3cc(O)ccc3c12
[1]
  TGI: 17 µM
[2]
  TGI: 2.47 µM
[3]
  TGI: 3.95 µM
[4]
  TGI: 0.534 µM
[5]
  TGI: 2.04 µM
[6]
  TGI: 1.44 µM
[7]
  TGI: 2.89 µM
[8]
  TGI: 1.25 µM
[9]
  TGI: 1.78 µM
[10]
  TGI: 2.78 µM

## COc1cc2c(c(OC)c1OC)-c1ccc(NNC(N)=S)c(=O)cc1[C@@H](NC(C)=O)CC2
[1]
  GI50: 4230 nM
  TGI: > 100 µM
[2]
  TGI: > 100 µM
[3]
  GI50: 7.21 µM
  TGI: > 100 µM
[4]
  GI50: 568 nM
  TGI: > 100 µM
[5]
  GI50: 0.414 µM
  TGI: > 49.9 µM
[6]
  GI50: 348 nM
  TGI: > 32.6 µM
[7]
  GI50: 630 nM
  TGI: > 100 µM
[8]
  GI50: 397 nM
[9]
  GI50: 881 nM
  TGI: > 100 µM
[10]
  GI50: > 100 µM
  TGI: > 100 µM

## C=CCOc1ccc2c(C)cc(=O)oc2c1C
[1]
  TGI: > 100 µM
[2]
  TGI: > 100 µM
[3]
  TGI: > 100 µM
[4]
  TGI: > 100 µM
[5]
  TGI: > 100 µM
[6]
  TGI: > 100 µM
[7]
  TGI: 58.5 µM
[8]
  TGI: > 100 µM
[9]
  TGI: > 100 µM
[10]
  TGI: > 100 µM

## COC(=O)CC[N+]1=CCC(c2ccccc2)(c2ccccc2)O1
[1]
  TGI: > 100 µM
[2]
  TGI: > 100 µM
[3]
  TGI: > 100 µM
[4]
  TGI: > 100 µM
[5]
  TGI: > 100 µM
[6]
  TGI: > 100 µM
[7]
  TGI: > 100 µM
[8]
  TGI: > 100 µM
[9]
  TGI: > 100 µM
[10]
  TGI: > 100 µM

## Fc1[nH]nc2ccc([C@@H]3Nc4ccc5[nH]ncc5c4[C@H]4C5CCC(C5)[C@@H]34)cc12 (stereo not given in full)
[1]
  GI50: 495 nM
  TGI: 13.1 µM
[2]
  GI50: 913 nM
  TGI: 12.2 µM
[3]
  GI50: 3.06 µM
  TGI: 14.6 µM
[4]
  GI50: 651 nM
  TGI: 12.7 µM
[5]
  GI50: 2.8 µM
  TGI: 15.9 µM
[6]
  GI50: 441 nM
  TGI: 12.1 µM
[7]
  GI50: 414 nM
  TGI: 10.6 µM
[8]
  GI50: 804 nM
  TGI: 7.26 µM
[9]
  GI50: 1990 nM
  TGI: 18.1 µM
[10]
  GI50: 0.436 µM
  TGI: 12.9 µM

## CN1CCCCC1CCN1c2ccccc2Sc2ccc(Cl)cc21 (stereo not given)
[1]
  GI50: 2930 nM
  TGI: 11.7 µM
[2]
  GI50: 3060 nM
  TGI: 8.97 µM
[3]
  GI50: 3.65 µM
  TGI: 14 µM
[4]
  GI50: 3200 nM
  TGI: 10.2 µM
[5]
  GI50: 10.7 µM
  TGI: 26.8 µM
[6]
  GI50: 2570 nM
  TGI: 6.72 µM
[7]
  GI50: 3320 nM
  TGI: 13.5 µM
[8]
  GI50: 2770 nM
  TGI: 8.44 µM
[9]
  GI50: 3650 nM
  TGI: 13.9 µM
[10]
  GI50: 4.25 µM
  TGI: 18.8 µM

## COc1cccc(C2c3cc4c(cc3OC(C)(N3CCCC3)C2C)OCO4)c1O (stereo not given)
[1]
  TGI: 29 µM
[2]
  TGI: > 23.5 µM
[3]
  TGI: 77.3 µM
[4]
  TGI: > 54.6 µM
[5]
  TGI: 8.9 µM
[6]
  TGI: 47.9 µM
[7]
  TGI: 17.5 µM
[8]
  TGI: 37 µM
[9]
  TGI: 48.6 µM
[10]
  TGI: > 100 µM

## Nc1c(C(=O)c2cccc(CCS(N)(=O)=O)c2)cnn1-c1ccc(F)cc1
[1]
  GI50: > 25000 nM
  TGI: > 25 µM
[2]
  GI50: > 25000 nM
  TGI: > 25 µM
[3]
  GI50: > 25 µM
  TGI: > 25 µM
[4]
  GI50: > 25000 nM
  TGI: > 25 µM
[5]
  GI50: > 25 µM
  TGI: > 25 µM
[6]
  GI50: > 25000 nM
  TGI: > 25 µM
[7]
  GI50: > 25000 nM
  TGI: > 25 µM
[8]
  GI50: > 25000 nM
  TGI: > 25 µM
[9]
  GI50: > 25000 nM
  TGI: > 25 µM
[10]
  GI50: > 20.6 µM
  TGI: > 25 µM

## Cc1ccsc1C(=S)Nc1ccc(Cl)c(/C=N/OC(C)(C)C)c1
[1]
  TGI: > 100 µM
[2]
  TGI: > 100 µM
[3]
  TGI: > 100 µM
[4]
  TGI: > 100 µM
[5]
  TGI: > 100 µM
[6]
  TGI: > 100 µM
[7]
  TGI: > 100 µM
[8]
  TGI: > 100 µM
[9]
  TGI: > 100 µM
[10]
  TGI: > 100 µM

## COC([CH2][Hg][n]1cnc2c1c(=O)n(C)c(=O)n2C)CN1C(=O)c2ccccc2S1(=O)=O (stereo not given)
[1]
  GI50: > 100000 nM
  TGI: > 100 µM
[2]
  GI50: > 100000 nM
  TGI: > 100 µM
[3]
  GI50: > 100 µM
  TGI: > 100 µM
[4]
  GI50: > 100000 nM
  TGI: > 100 µM
[5]
  GI50: > 100 µM
  TGI: > 100 µM
[6]
  GI50: > 100000 nM
  TGI: > 100 µM
[7]
  GI50: > 100000 nM
  TGI: > 100 µM
[8]
  GI50: > 100000 nM
  TGI: > 100 µM
[9]
  GI50: > 100000 nM
  TGI: > 100 µM
[10]
  GI50: > 100 µM
  TGI: > 100 µM

## COc1cc(/C=N\NC(=O)CN2CCN(c3cc4c(cc3F)c(=O)c(C(=O)N/N=C/c3cc(OC)c(OC)c(OC)c3)cn4C3CC3)CC2)cc(OC)c1OC
[1]
  GI50: > 100000 nM
  TGI: > 100 µM
[2]
  GI50: 204 nM
  TGI: 0.513 µM
[3]
  GI50: 0.489 µM
  TGI: > 62.4 µM
[4]
  GI50: 331 nM
  TGI: > 100 µM
[5]
  GI50: 0.237 µM
  TGI: 0.605 µM
[6]
  GI50: 219 nM
  TGI: 0.5 µM
[7]
  GI50: 685 nM
  TGI: 5.58 µM
[8]
  GI50: 251 nM
  TGI: 0.636 µM
[9]
  GI50: 225 nM
  TGI: 0.601 µM
[10]
  GI50: 0.255 µM
  TGI: 0.767 µM
